“Also recorded” adds a separate entry of the source. Read-outs that look alike come from different tables or passages of the source.
Columns and labels:
prolactin [1] = assay: single ascending dose study with healthy subjects: prolactin pharmacodynamics; format: in vivo, human; details: single doses
[2] = single ascending dose study with healthy subjects: safety and tolerability; format: in vivo, human; details: single doses 1 to 24 mg
prolactin [3] = assay: multiple ascending dose study with healthy subjects: prolactin pharmacodynamics; format: in vivo, human; details: multiple doses TID
Method: Prolactin serum concentrations were summarized by timepoint, dose and part. Absolute and percent change from baseline in prolactin value was calculated, with predose value on Day 1 considered as the baseline value. Observed prolactin data, absolute and percent change from baseline versus time were plotted.

[4] = multiple ascending dose study with healthy subjects: safety and tolerability; format: in vivo, human
[5] = for CL/F Mean / Cav Mean / Ctrough Mean: healthy subjects
clinical [6] = details: human; for CL renal: plasma and urine; for half-life / Cmax / Tmax / AUC(0-inf) / Vd/F: plasma
clinical [7] = details: human, plasma, oral
[8] = single ascending dose study with healthy subjects: pharmacokinetics
[9] = test system: drop seizures in patients with Lennox-Gastaut Syndrome; details: Phase 3 studies, versus placebo; cited from earlier work
[10] = multiple doses TID, healthy subjects
[11] = 3 mg TID, no titration, 14 days
[12] = 6 mg TID, no titration, 14 days
[13] = 12 mg TID, no titration, 14 days
[14] = 18 mg TID, no titration, 14 days

For `C[C@H]1CN2CCNCc3ccc(C(=O)NCC(F)F)c1c32` [Compound 1, (R)-N-(2,2-difluoroethyl)-7-methyl-1,2,3,4,6,7-hexahydro-[1,4]diazepino[6,7,1-hi]indole-8-carboxamide], the “prolactin levels by 24-hour postdose” value (prolactin [1]) was “returned to baseline for only the 6 mg dose level”, the “prolactin mean % CFB at 2 hours” value (prolactin [1]) was “increased in a dose-dependent manner, with a greater than dose proportional increase between 6 mg and 12 mg doses” and the prolactin (prolactin [1]; within 2 h) was “increased within 2 h in a dose- and concentration-dependent manner”. For the same compound, the “most common treatment emergent adverse events” value [2] was “headache, postural dizziness, and nausea, which were mild to moderate in severity”, the “mean percent change from baseline prolactin level at 2 hours” value (prolactin [3]) was “increased with increasing doses from 3 mg to 12 mg and plateaued thereafter” and the prolactin (prolactin [3]) was “increased in a dose- and concentration-dependent manner, with greater increase seen after first dose”. The serious adverse event ([4]; after stopping treatment with 24 mg TID) was “One”, the “subjects discontinued due to adverse events” value ([4]; forty-three subjects enrolled) was “Three” and the “most common TEAEs” value [4, 10] was “headache, somnolence, dizziness, dizziness postural, micturition urgency & orthostatic hypotension”. The “severity of majority of treatment emergent adverse events (TEAEs)” value [4, 10] was “mild to moderate”, the “severe TEAEs” value ([4]; occurring in 3 subjects, all after cessation of dosing) was “Five” and the “CL/F Mean” value [5, 11] was 125 L/h. For the same compound, the “Cav Mean” value [5, 11] was 3.39 ng/mL, the “Ctrough Mean” value [5, 11] was 1.94 ng/mL and the “CL/F Mean” value [5, 12] was 66.6 L/h. The “Cav Mean” value [5, 12] was 12.5 ng/mL, the “Ctrough Mean” value [5, 12] was 7.02 ng/mL and the “CL/F Mean” value [5, 13] was 63.1 L/h. The “Cav Mean” value [5, 13] was 26.6 ng/mL, the “Ctrough Mean” value [5, 13] was 15.8 ng/mL and the “CL/F Mean” value [5, 14] was 45.9 L/h. The “Cav Mean” value [5, 14] was 60.0 ng/mL, the “Ctrough Mean” value [5, 14] was 37.7 ng/mL and the “CL/F Mean” value ([5]; 24 mg TID, 3-day titration) was 62.9 L/h. The “Cav Mean” value ([5]; 24 mg TID, 3-day titration) was 60.1 ng/mL, the “Ctrough Mean” value ([5]; 24 mg TID, 3-day titration) was 34.0 ng/mL and the “dose eliminated by the renal route in 48 hours” value ([5]; 12/24 mg TID titration regimen) was 12.3%. For the same compound, the “accumulation upon multiple dosing” value ([5]; TID regimen, listed as Study Drug) was “Significant accumulation; also recorded: dose dependent accumulation”, the “steady-state achieved by” value ([5]; doses up to 18 mg TID, in most cases) was no more than 10 days and the “absorption into systemic circulation” value ([5]; first dose and multiple oral doses, powder-in-capsule formulation) was “rapidly absorbed”. For the same compound, the “dosing time after which most subjects were at steady state” value ([5]; non-titration part) was 10 days, the CL renal (clinical [6]; oral, 1 mg) was 50 mL/min and the CL renal (clinical [6]; oral, 3 mg) was 60.3 mL/min. It also gave a CL renal (clinical [6]; oral, 6 mg) of 57 mL/min, a CL renal (clinical [6]; oral, 12 mg) of 70.8 mL/min and a CL renal (clinical [6]; oral, 24 mg) of 62.5 mL/min. For the same compound, the half-life (clinical [6]; oral) was 5 to 7 h, the Cmax (clinical [6]; oral, 1 mg) was 1.08 ng/mL and the Tmax (clinical [6]; oral, 1 mg) was 1.54 h. For the same compound, the AUC(0-inf) (clinical [6]; oral, 3 mg) was 40.9 ng·h/mL, the Cmax (clinical [6]; oral, 3 mg) was 6.36 ng/mL and the Tmax (clinical [6]; oral, 3 mg) was 1.02 h. It also gave a Vd/F (clinical [6]; oral, 3 mg) of 608 L, a half-life (clinical [6]; oral, 3 mg) of 4.94 h and an AUC(0-inf) (clinical [6]; oral, 6 mg) of 58.7 ng·h/mL. The Cmax (clinical [6]; oral, 6 mg) was 9.52 ng/mL, the Tmax (clinical [6]; oral, 6 mg) was 1.5 h and the Vd/F (clinical [6]; oral, 6 mg) was 1230 L. For the same compound, the half-life (clinical [6]; oral, 6 mg) was 6.66 h, the AUC(0-inf) (clinical [6]; oral, 12 mg) was 101 ng·h/mL and the Cmax (clinical [6]; oral, 12 mg) was 17 ng/mL. The Tmax (clinical [6]; oral, 12 mg) was 1.25 h, the Vd/F (clinical [6]; oral, 12 mg) was 929 L and the half-life (clinical [6]; oral, 12 mg) was 4.67 h. The AUC(0-inf) (clinical [6]; oral, 24 mg) was 288 ng·h/mL, the Cmax (clinical [6]; oral, 24 mg) was 59.3 ng/mL and the Tmax (clinical [6]; oral, 24 mg) was 1.07 h. The Vd/F (clinical [6]; oral, 24 mg) was 697 L, the half-life (clinical [6]; oral, 24 mg) was 5.09 h and the Tmax (clinical [6]; po) was 1 to 1.5 h. The Tmax (clinical [7]) was 1 to 2 h, the AUC (clinical [7]; 3 mg TID) was 27.1 ng·h/mL and the AUC(0-inf) (clinical [7]; 3 mg TID) was 46.1 ng·h/mL. For the same compound, the AUC(0-t) (clinical [7]; 3 mg TID) was 38.6 ng·h/mL, the Cmax (clinical [7]; 3 mg TID) was 6.61 ng/mL and the Tmax (clinical [7]; 3 mg TID) was 1.01 h. The half-life (clinical [7]; 3 mg TID) was 5.56 h, the AUC (clinical [7]; 6 mg TID) was 99.8 ng·h/mL and the AUC(0-inf) (clinical [7]; 6 mg TID) was 152 ng·h/mL. It also gave an AUC(0-t) (clinical [7]; 6 mg TID) of 150 ng·h/mL, a Cmax (clinical [7]; 6 mg TID) of 20.7 ng/mL and a Tmax (clinical [7]; 6 mg TID) of 1.78 h. It also gave a half-life (clinical [7]; 6 mg TID) of 4.81 h, an AUC (clinical [7]; 12 mg TID) of 213 ng·h/mL and an AUC(0-inf) (clinical [7]; 12 mg TID) of 330 ng·h/mL. For the same compound, the AUC(0-t) (clinical [7]; 12 mg TID) was 327 ng·h/mL, the Cmax (clinical [7]; 12 mg TID) was 44.9 ng/mL and the Tmax (clinical [7]; 12 mg TID) was 1.27 h. For the same compound, the half-life (clinical [7]; 12 mg TID) was 5.96 h, the AUC (clinical [7]; 18 mg TID) was 480 ng·h/mL and the AUC(0-inf) (clinical [7]; 18 mg TID) was 775 ng·h/mL. The AUC(0-t) (clinical [7]; 18 mg TID) was 773 ng·h/mL, the Cmax (clinical [7]; 18 mg TID) was 98.6 ng/mL and the Tmax (clinical [7]; 18 mg TID) was 2 h. It also gave a half-life (clinical [7]; 18 mg TID) of 5.64 h, an AUC (clinical [7]; 24 mg TID) of 480 ng·h/mL and an AUC(0-inf) (clinical [7]; 24 mg TID) of 741 ng·h/mL. The AUC(0-t) (clinical [7]; 24 mg TID) was 737 ng·h/mL, the Cmax (clinical [7]; 24 mg TID) was 107 ng/mL and the Tmax (clinical [7]; 24 mg TID) was 1.04 h. The half-life (clinical [7]; 24 mg TID) was 6.5 h, the “dose proportionality of peak and total exposure” value ([8]; single doses 1 to 24 mg) was “slightly greater than dose proportional especially at higher doses” and the “absorption into the systemic circulation” value ([8]; single oral dose, powder in capsule formulation) was “rapidly absorbed”.

In the case of `CCNC(C)Cc1cccc(C(F)(F)F)c1` (stereo not shown) [fenfluramine], the “reduction of the frequency of drop seizures” value [9] is listed as “superior to placebo”.
